The text below walks through data of patent publication US7013836B1, “Enhancing maturation of oocytes in bivalves” (Board of Supervisors of Louisiana State University and …, priority 2002, dated 2006).

Read-outs that look alike come from different tables or passages of the source. *1 amine or outer side, *2 acyl side, *3 side chain or, on linkers, in order; H or OH if unused. Where a SMILES comes first, the peptide text is derived from it. Bridges are numbered along the chain shown (N, C = ends). Roman numbers before positions name the chains, in order. [ ]: non-standard residue; d: D form. Actinocin(9to1) = Cc1c2oc3c(C)ccc(C(=O)[*:1])c3nc-2c(C(=O)[*:2])c(N)c1=O; NMeV = CN[C@H](C(=O)O)C(C)C; Sar = CNCC(=O)O

The subject of assay [1] is pieces of ovary from the scallop. The conditions noted are these: cited from earlier work.
For assay [2], the system named is ovarian pieces of the scallop. Conditions: isolated ovarian pieces in vitro; cited from earlier work.
Assay [3] has as its system Japanese scallop. Conditions: in vivo; cited from earlier work.
The test system of assay [4] is C. gigas. The conditions noted are these: cited from earlier work.
Assay [5] concerns C. virginica. Nature of the assay: Spawning response of estradiol-17β-injected oysters to serotonin stimulus after normal spawning season. It counts as in vivo, Crassostrea virginica. On the procedure:
A series of initial experiments assayed the response of C. virginica to low doses of estradiol-17β. These trials were undertaken in August and September, at the end of the normal maturation and spawning season of this species on the Gulf coast. Experiments typically ran for two weeks following the injection of a single dose of estradiol-17β into the […] muscle. (Injections were made through a small hole drilled in the shell.) The estradiol dosage for each animal was calculated based on wet body tissue mass of the whole animal, as estimated from its shell length. (These estimates were based on linear regression from measurements of shell lengths and wet body mass from 62 mixed-sex oysters that had been harvested in July). […] (The normal physiological level is 1.5 ng per gram wet weight. So a 5× dosage is 7.5 ng per gram wet weight, […]) Responses to the estradiol treatment were based on visual assessment of gonadal condition, on the response of the excised whole animal to a solution of 0.01 mM 5-hydroxytryptamine during a 45 min treatment period, and on histological examination of samples of the oyster taken through the body mass containing the gonadal region.
The three trials summarized in Table 1 were analyzed using a yes/no non-parametric chi-squared analysis.

The subject of assay [6] is oysters. Nature of the assay: Presence of prominent genital canals 14 days after estradiol-17β injection. It counts as in vivo, Crassostrea virginica. The conditions noted are these: after 14 days, May. The protocol: In another experiment, conducted in May in Grand Isle, La., animals were injected either with 0 (control), 37.5 ng/g, or 74 ng/g of estradiol-17β. After 14 days, animals were evaluated using the traditional methodology of assaying the presence of prominent genital canals, indicative of mature animals that are ready to spawn. These animals were not subjected to serotonin treatment, but rather were sacrificed for histological examination to establish a somatic-gonadal ratio index. […] Data analysis was performed using GraphPad InStat software. The data reported in Table 2 are conservative, in the following sense: During the trial period, the water temperature decreased from 23° C. to 18° C., and then increased to 22° C., all within a thirty-six hour period. Such a temperature change is alone often sufficient to trigger spawning in the wild.

Assay [7] concerns triploid C. virginica oysters. Nature of the assay: Triploid oysters: sex, gonadal condition and oocyte yield by stripping after estradiol injection. Conditions: 150 ng/gm wet weight. It counts as in vivo, Crassostrea virginica. On the procedure:
In trials with 261 triploid C. virginica oysters that began on May 31 in Grand Isle, La., the oysters were notched and were then injected with 150 ng/gm wet weight estradiol 17β. Ten days later, the animals were sacrificed, and their sex and gonadal condition were determined. Of the 261 animals tested, 13 were confirmed female triploids. These 13 triploid females yielded a total of 6 million oocytes by traditional stripping techniques, which is not a high yield in comparison to diploid animals, but was high compared to untreated triploids.
For comparison, on May 6 of the following year, 165 animals selected from the same original cohort of triploid oysters were sacrificed without the estradiol treatment. […] While these observations were made one year apart, both sets of observations involved triploid animals sharing the same diploid parents. The estradiol-treated group was 2 years old at the time of observation, while the untreated group one year later was 3 years old. […] However, in support of the effectiveness of the treatment, it may be noted that the three-year-old, untreated animals were sacrificed at a time when the population of mature and spawning diploid animals in the same location was at its peak, whereas the two-year-old, estradiol-treated animals were examined when the number of mature and spawning diploids was in decline.

The test system of assay [8] is zebra mussels (Dreissena polymorpha). The conditions noted are these: cited from earlier work.
The test system of assay [9] is scallop Patinopecten yessoensis. Conditions: intragonadal injection; cited from earlier work.
Setting [10] is: Aug. 18, injection 75 ng per gram wet weight.
[11] abbreviates: Sep. 15, injection 7.5 ng per gram wet weight.
[12] abbreviates: Sep. 22, injection 15 ng per gram wet weight.

Turning to `CC[C@@H](CO)NC(=O)[C@@H]1C=C2c3cccc4c3c(cn4C)C[C@H]2N(C)C1` [Methysergide], the release of eggs entry in assay [1] (pieces of ovary in vitro) is on record as “inhibited the release of eggs”.
Turning to `CCCCC[C@H](O)/C=C/[C@H]1[C@H](O)CC(=O)[C@@H]1C/C=C\CCCC(=O)O` [PGE2, prostaglandin E2], in assay [1] (pieces of ovary in vitro), the “effect on serotonin-induced egg release” value is reported as “enhanced the effect of serotonin” and the release of eggs entry was “did not induce egg release”.
On to `Cc1c2oc3c(C)ccc(C(=O)N[C@@H]4C(=O)N[C@H](C(C)C)C(=O)N5CCC[C@H]5C(=O)N(C)CC(=O)N(C)[C@@H](C(C)C)C(=O)O[C@@H]4C)c3nc-2c(C(=O)N[C@@H]2C(=O)N[C@H](C(C)C)C(=O)N3CCC[C@H]3C(=O)N(C)CC(=O)N(C)[C@@H](C(C)C)C(=O)O[C@@H]2C)c(N)c1=O` [actinomycin D] (I: T[dV]P[Sar][NMeV] / II: T[dV]P[Sar][NMeV]; ester I:1-I:C, II:1-II:C; linker I:N-II:N via Actinocin(9to1)), for which the “effect on the accelerating effect of estradiol-17β pre-incubation” value in assay [2] is reported as “inhibited”.
In the case of `CC(=O)Oc1ccccc1C(=O)O` [aspirin], the “effect on the accelerating effect of estradiol-17β pre-incubation” value in assay [2] was “inhibited”. In addition, the “effect on serotonin-induced egg release” value in assay [1] (PGE2 also present) is “did not inhibit serotonin-induced egg release”.
`C[C@]12C[C@H]3S[C@H]3C[C@@H]1CC[C@@H]1[C@@H]2CC[C@]2(C)[C@@H](O)CC[C@@H]12` [epitostanol]: in assay [3], the “increase of PGE2 and PGF2α in the ovary” value is “inhibit the increase of PGE2 and PGF2α”.
On to `C[C@]12CC[C@@H]3c4ccc(OC(=O)c5ccccc5)cc4CC[C@H]3[C@@H]1CC[C@@H]2O` [estradiol-3-benzoate], for which the “response time following injection” value in [4] was “about 50 days”. In addition, the gonadal-somatic index ratio result in assay [4] (high dose injected into the gonad) is “promoted an increase in the gonadal-somatic index ratio”.
For the compound `C[C@]12CC[C@@H]3c4ccc(O)cc4CC[C@H]3[C@@H]1CC[C@@H]2O` [estradiol-17β], in assay [5] (setting [10]), the “Animals not responding to 5-hydroxytryptophan stimulus - %” value (“Animals not responding … - %” below) was 42%, the “Animals not responding to 5-hydroxytryptophan stimulus - no.” value (“Animals not responding … - no.” below) is given as 6, the “Animals responding to 5-hydroxytryptophan stimulus - %” value (from here on “Animals responding … - %”) was 58% and the “Animals responding to 5-hydroxytryptophan stimulus - no.” value (“Animals responding … - no.” for short) amounted to 8. In assay [5] (setting [11]), the “Animals not responding … - %” value turned out to be 60%, the “Animals not responding … - no.” value amounted to 12, the “Animals responding … - %” value was 40% and the “Animals responding … - no.” value was determined as 8. In addition, in assay [5] (setting [12]), the “Animals not responding … - %” value is 65%, the “Animals not responding … - no.” value came to 21, the “Animals responding … - %” value is given as 35% and the “Animals responding … - no.” value is recorded as 11. For the same compound, in assay [6] (dose 1 group, 37.5 ng/g), the “number with prominent genital canals” value was found to be 11, the “number without prominent genital canals” value worked out at 38, the “percent with prominent genital canals” value was found to be 22% and the “percent without prominent genital canals” value is listed as 78%. In assay [6] (dose 2 group, 74 ng/g), the “number with prominent genital canals” value was found to be 18, the “number without prominent genital canals” value was found to be 35, the “percent with prominent genital canals” value was determined as 34% and the “percent without prominent genital canals” value is 66%. Moreover, in assay [7] (13 triploid females, ten days after injection), the “total oocytes yielded by traditional stripping” value is given as 6 million oocytes. For the same compound, in assay [7] (of 261 triploid oysters, untreated cohort of 165 had none), the “confirmed female triploids among animals tested” value turned out to be 13.
As to `CNCCC(Oc1ccc(C(F)(F)F)cc1)c1ccccc1` (stereo not drawn) [fluoxetine], in assay [8], the induction of spawning entry was “can induce spawning in both sexes”.
For the compound `COCCCC/C(=N\OCCN)c1ccc(C(F)(F)F)cc1` [fluvoxamine], in assay [8], the induction of spawning result is given as “can induce spawning in both sexes”.
Take `COc1ccc2c(c1)c(CC(=O)O)c(C)n2C(=O)c1ccc(Cl)cc1` [indomethacin]: the “effect on serotonin-induced egg release” value in assay [1] (PGE2 also present) is “did not inhibit serotonin-induced egg release”.
`Fc1ccc([C@@H]2CCNC[C@H]2COc2ccc3c(c2)OCO3)cc1` [paroxetine]: the induction of spawning entry in [8] is listed as “can induce spawning in both sexes”.
With `NCCc1c[nH]c2ccc(O)cc12` [serotonin, 5-hydroxytryptamine], the induction of spawning entry in [8] is “induce both oocyte meiotic maturation and spawning”. The spawning entry in assay [9] is given as “stimulated spawning in both sexes”. The release of eggs entry in assay [1] (pieces of ovary in vitro) is reported as “the number of released eggs increased significantly”.
For the compound prostaglandin F2α [PGF2α], the “effect on serotonin-induced egg release” value in assay [1] (pieces of ovary in vitro) is “significantly inhibited the effect of serotonin”.
